From patent publication US20080261911A1, “Uses of diphenyl/diphenylamine carboxylic acids” (priority 2006, published 2008)
Marks after values point to notes of the source that are not given here.

How the values were obtained:
[1] = system: VEGF protein; assay: VEGF protein expression in Panc-1 cells, Western blot; assay type: cell-based; conditions: 50 μM, 48 hr, compared to DMSO
[2] = system: VEGF promoter constructs pVEGF1 and pVEGF2; assay: VEGF promoter (pVEGF1/pVEGF2) luciferase transactivation in L3.6pl cells; assay type: cell-based, human; conditions: 50 μM
Experimental: Cells were transfected with pVEGF1 or pVEGF2 treated with DMSO, 50 μM ampiroxicam, tolfenamic acid, or diclofenac sodium, and luciferase activity determined. […] Panc-1 cells were transfected with pVEGF2, treated with 20, 40, 60 or 80 μM ampiroxicam or tolfenamic acid, and luciferase determined. […] Cells are cultured in 6-well plates in 2 ml of DME/F12 medium supplemented with 5% fetal bovine serum.

[3] = system: SEG-1 esophageal cancer cells; assay: Cell proliferation assay, SEG-1 esophageal cancer cells; assay type: cell-based; parameters: dose or concentration left out as unconfirmed; conditions: DMSO control
[4] = system: Sp protein interactions with VEGFR1 promoter sequences; assay: Gel mobility shift of Panc-1 nuclear extracts with VEGFR1 32P and GC/SP 32P; assay type: cell-based; conditions: nuclear extracts of Panc-1 cells treated with 50 μM for 48 h
Experimental: The specific Sp protein bands and antibody supershifted complexes are indicated with arrows.
Vascular endothelial growth factor and VEGFR1 oligonucleotides are synthesized and annealed, and 5 pmol aliquots are 5′-end-labeled using T4 kinase and [y-^32P]ATP. After the reaction sample was incubated 20 min on ice, and antibodies against Sp1, Sp3, and Sp4 proteins are added and incubated another 20 min on ice.
FIGS. 16A and 16B compare the gel mobility shift and antibody supershift patterns of nuclear extracts from Panc-1 cells bound to the proximal region of the VEGFR1 promoter containing both GC-rich and Egr-1 sites (VEGFR1^32P) or GC-rich sites alone (GC/SP^32P).

[5] = system: Bic-1 esophageal cancer cells; assay: Western blot of Sp and Sp-dependent proteins in BIC-1 esophageal cancer cells; assay type: cell-based; conditions: Bic-1 cells, 25-100 μM
Experimental: Cells are washed once with phosphate buffered saline PBS and collected by scraping in 200 μL of lysis buffer [50 mM HEPES, 0.5M sodium chloride, 1.5 mM magnesium chloride, 1 mM EGTA, 10% (v/v) glycerol, 1% Triton X-100, 5 μL/ml of Protease Inhibitor Cocktail (Sigma)]. The lysates from the cells are incubated on ice for 1 hr with intermittent vortexing followed by centrifugation at 40,000 g for 10 min at 4° C. Equal amounts of protein (60 μg) from each treatment group are diluted with loading buffer, boiled and loaded onto 10 and 12.5% SDS-polyacrylamide gel. For vascular endothelial growth factor immunoblots, 100 μg of protein are used. Samples are electrophoresed, transferred to membranes, and proteins detected by incubation with polyclonal primary antibodies Sp1, Sp3, Sp4, HDAC, VEGF (a-20), c-Met, surviving, VEGF, cleaved PARP, and β-tubulin (H-235) followed by blotting with appropriate horseradish peroxidase-conjugated secondary antibody as previously described (Abdelrahim et al, 2004). After autoradiography, band intensities are determined by a scanning laser densitometer (Sharp Electronics Corporation, Mahwah, N.J.) using ZERO-D SCANALYTICS software (Scanalytics Corporation, Billerica, Mass.).

[6] = system: VEGF mRNA; assay: VEGF mRNA levels in Panc-1 cells, semi-quantitative RT-PCR; assay type: cell-based
[7] = system: Bic-1 esophageal cancer cells; assay: Cell proliferation assay, BIC-1 esophageal cancer cells; assay type: cell-based; parameters: dose or concentration left out as unconfirmed; conditions: tolfenamic acid, DMSO control
[8] = system: Panc-28 cells; assay: Cell proliferation assay, Panc-28 cells; assay type: cell-based
Experimental: FIGS. 7A-7D compares effects of tolfenamic acid and ampiroxicam on pancreatic cancer cell proliferation. […] Panc1, Panc28 and L3.6pl cells are seeded in DMEM/F12 media with 5% FBS and treated the next day with either vehicle (DMSO) or with the indicated compounds' concentrations. Cells are counted at the indicated times using a Z1™ COULTER COUNTER® cell counter. Each experiment is carried out in triplicate and results expressed as means ±SD for each determination.

[9] = system: VEGFR1 mRNA; assay: VEGFR1 mRNA in L3.6pl cells, semi-quantitative RT-PCR; assay type: cell-based, human; conditions: 50 μM, 24 h
[10] = system: orthotopically implanted human pancreatic L3.6p1 cancer cells; assay: Orthotopic pancreatic tumor model in athymic nude mice; conditions: for Body Weight Median / Incidence Liver metastasis / Pancreatic Tumor Incidence (positive mice/mice injected) / Tumor Volume Median / Tumor Weight Median: thrice weekly oral from day 7, sacrificed day 35
Experimental: Median tumor volumes (FIG. 8A) and weights (FIG. 8B) in athymic nude mice treated orthotopically with L3.6pl cells, and corn oil (control), tolfenamic acid (25 and 50 mg/kg), and gemcitabine (50 mg/kg) were determined. […] Tumors from the various treatment groups were analyzed for Sp1, Sp3, Sp4, and VEGF protein expression by Western blot analysis. […] Immunostaining is shown for VEGF (FIG. 8D), and CD31 (FIG. 8E). Pancreatic tumor sections from animals treated with solvent (control), gemcitabine (50 mg/kg) and tolfenamic acid (25 and 50 mg/kg) were immunostained with VEGF and CD31 antibodies.
Male athymic nude mice (NCI-nu) are purchased from the Animal Production Area of the National Cancer Institute Frederick Cancer Research and Development Center, housed and maintained under specific pathogen-free conditions in accordance with current regulations and standards of the United States Department of Agriculture. Injection of L3.6pl cells (with greater than 90% viability is performed as previously described (Bruns et al, 1999). Seven days after implantation of tumor cells into the pancreas of each mouse, five mice are killed to confirm the presence of tumor lesions.
Mice (10 animals per treatment group) are randomized to receive one of the following treatments: (1) thrice weekly oral administrations of vehicle solution which will serve as a control group; (2) thrice weekly oral administrations of at least three non-steroidal anti-inflammatory drugs at doses of 10, 25, and 50 mg/kg/day; (3) twice weekly intraperitoneal injections of 50, 75, and 100 mg/kg/day gemcitabine alone; and (4) combinations of gemcitabine and non-steroidal anti-inflammatory drugs. Mice are sacrificed on day 35 and body weights measured. Primary tumors in the pancreas are excised, measured, weighed. For immunohistochemistry (IHC) and hematoxylin and eosin (H&E) staining procedures, one part of the tumor tissue is fixed in formalin and embedded in paraffin, and another part is embedded in TISSUE-TEK® O.C.T. compound, rapidly frozen in liquid nitrogen, and stored at −70° C. Visible liver metastases are counted with the aid of a dissecting microscope, and the tissues processed for hematoxylin and eosin staining.
Paraffin-embedded tissues are used for identification of Sp proteins, VEGFR2p27 and vascular endothelial growth factor. Tissue sections ([…] thick) are mounted on positively charged SUPERFROST slides (Fischer Scientific, Co, Houston, Tex.) and dried overnight. Sections are deparaffinized in xylene and treated with a graded series of alcohol [100, 95, and 80% ethanol (v/v) in double distilled H2O] and rehydrated in phosphate buffered saline (pH 7.5). Tissues are treated with pepsin (Biomeda) for 15 min at 37° C. and washed with phosphate buffered saline. A positive reaction is visualized by incubating the slides with stable 3,3′-diaminobenzidine for 10-20 min. Sections are rinsed with distilled water, counterstained with Gill's hematoxylin for 1 min, and mounted with UNIVERSAL MOUNT (Research Genetics). […] Tumor sample lysates are also examined by western blot analysis for the same proteins.
The potential anti-tumorigenic and anti-angiogenic activity of tolfenamic acid against pancreatic tumors was investigated in an orthotopic athymic nude mouse model. L3.6pl cells were used for this study based on their aggressive growth and production of liver metastases (Bruns et al, 1999; Dubois et al, 1998).

[11] = tolfenamic acid 50 mg/kg, p < 0.005 vs controls

**Q.** Which “decrease of vascular endothelial growth factor expression (protein)” value [1] does the source give for `Cc1c(Cl)cccc1Nc1ccccc1C(=O)O` [tolfenamic acid] here?
**A.** greater than 60%

**Q.** What about the “luciferase activity, pVEGF1 and pVEGF2 constructs” value [2] of the same compound?
**A.** results similar to those observed in Panc-1 cells

**Q.** What about the “growth of SEG-1 esophageal cancer cells” value [3] of the same compound?
**A.** inhibits growth

**Q.** What about the “Sp1, Sp3, and Sp4-DNA retarded band intensity with VEGFR1 32P and GC/SP 32P” value [4] of the same compound?
**A.** retarded band intensity was markedly decreased

**Q.** What about the “apoptosis as shown by PARP cleavage” value [5] of the same compound?
**A.** induced apoptosis

**Q.** And the “expression of Sp-dependent proteins VEGF, survivin, and c-Met” value [5]?
**A.** decreased expression of Sp-dependent proteins vascular endothelial growth factor (VEGF), survivin, and c-Met

**Q.** And the “protein expression of Sp1, Sp3, and Sp4” value [5]?
**A.** decreased protein expression of Sp1, Sp3, and Sp4

**Q.** And the “decrease of vascular endothelial growth factor mRNA levels” value ([6]; 50 μM, 24 hours, compared to DMSO)?
**A.** greater than 60%

**Q.** And the “VEGF mRNA stability” value ([6]; actinomycin D alone or with 50 μM tolfenamic acid, up to 4.5 hr)?
**A.** decreased at similar rates

**Q.** And the “growth of BIC-1 esophageal cancer cells” value [7]?
**A.** inhibits growth

**Q.** What about the “potency as inhibitor of pancreatic cell growth relative to ampiroxicam” value [8] of the same compound?
**A.** more potent as an inhibitor of pancreatic cell growth than ampiroxicam

**Q.** And the cell growth ([8]; 25-100 μM, 6 days)?
**A.** significantly (p<0.05) inhibited cell growth

**Q.** And the “VEGFR1 mRNA levels” value [9]?
**A.** decreased VEGFR1 mRNA levels

**Q.** And the “median tumor weights and volumes” value ([10]; 25 or 50 mg/kg/d)?
**A.** decreased median tumor weights and volumes

**Q.** And the “percent incidence of liver metastasis” value ([10]; 25 or 50 mg/kg/d)?
**A.** decreased the percent incidence of liver metastasis

**Q.** What about the “tumor growth inhibition compared with gemcitabine” value ([10]; at comparable doses) of the same compound?
**A.** more effective than gemcitabine as a tumor growth inhibitor

**Q.** And the “CD31 staining (microvessel density) in tumors” value ([10]; compared to tumors from vehicle (corn oil) or gemcitabine-treated animals)?
**A.** decreased staining

**Q.** What about the “Body Weight Median” value ([10]; tolfenamic acid 25 mg/kg) of the same compound?
**A.** 25 g

**Q.** What about the “Incidence Liver metastasis” value ([10]; tolfenamic acid 25 mg/kg) of the same compound?
**A.** 1/10

**Q.** What about the “Pancreatic Tumor Incidence (positive mice/mice injected)” value ([10]; tolfenamic acid 25 mg/kg) of the same compound?
**A.** 10/10

**Q.** What about the “Tumor Volume Median” value ([10]; tolfenamic acid 25 mg/kg) of the same compound?
**A.** 1732.8 mm^3

**Q.** What about the “Tumor Weight Median” value ([10]; tolfenamic acid 25 mg/kg) of the same compound?
**A.** 1.2 g

**Q.** What about the “Body Weight Median” value ([10]; tolfenamic acid 50 mg/kg) of the same compound?
**A.** 24 g

**Q.** And the “Incidence Liver metastasis” value ([10]; tolfenamic acid 50 mg/kg)?
**A.** 1/10

**Q.** And the “Pancreatic Tumor Incidence (positive mice/mice injected)” value ([10]; tolfenamic acid 50 mg/kg)?
**A.** 10/10

**Q.** And the “Tumor Volume Median” value [10, 11]?
**A.** 348.8^c mm^3

**Q.** What about the “Tumor Weight Median” value [10, 11] of the same compound?
**A.** 0.4^c g

**Q.** And the “immunostaining for vascular endothelial growth factor in tumor sections” value ([10]; tolfenamic acid 25 and 50 mg/kg)?
**A.** decreased staining

**Q.** And the “VEGFR1 staining of tumor tissue” value ([10]; tolfenamic acid 25 and 50 mg/kg, gemcitabine 50 mg/kg and solvent as comparison)?
**A.** decreased VEGFR1 expression only in tumors from tolfenamic acid-treated mice

**Q.** And the “expression of Sp1, Sp3, Sp4 and vascular endothelial growth factor in pancreatic tumors, Western blot” value ([10]; tolfenamic acid versus corn oil control-treated animals)?
**A.** significantly decreased expression of Sp1, Sp3, Sp4 and vascular endothelial growth factor
